From ChEMBL document CHEMBL1143560, “Discovery of bicycloalkyl urea melanin concentrating hormone receptor antagonists: orally efficacious antiobesity therapeutics” (J Med Chem, 2005)
pKi: −log10 of the molar value. Blank lines part the entries; values can stand above or below the compound they belong to.

Assays:
[1] = target: T1, Melanin-concentrating hormone receptor 1 (Homo sapiens, UniProt Q99705); assay: Inhibition of [Ca2+] influx mediated by human Melanin concentrating hormone receptor 1 expressing cells; type: functional
T1 sequence (Q99705 whole entry): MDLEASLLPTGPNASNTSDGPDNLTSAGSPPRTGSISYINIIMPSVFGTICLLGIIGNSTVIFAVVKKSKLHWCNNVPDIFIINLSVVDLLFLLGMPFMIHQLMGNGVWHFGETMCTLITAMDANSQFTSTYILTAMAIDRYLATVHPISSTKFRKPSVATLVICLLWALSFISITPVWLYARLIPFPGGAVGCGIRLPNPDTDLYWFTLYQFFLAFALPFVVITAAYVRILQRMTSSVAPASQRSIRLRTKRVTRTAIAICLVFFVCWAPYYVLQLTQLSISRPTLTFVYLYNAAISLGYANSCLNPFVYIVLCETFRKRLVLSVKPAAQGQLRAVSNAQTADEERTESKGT

[2] = target: T1, Melanin-concentrating hormone receptor 1; assay: Inhibition constant for human Melanin concentrating hormone receptor 1
[3] = target: Melanin-concentrating hormone receptor 2 (Homo sapiens, UniProt Q969V1); assay: Inhibition constant for human Melanin concentrating hormone receptor 2
Sequence of Melanin-concentrating hormone receptor 2 (Q969V1 whole entry): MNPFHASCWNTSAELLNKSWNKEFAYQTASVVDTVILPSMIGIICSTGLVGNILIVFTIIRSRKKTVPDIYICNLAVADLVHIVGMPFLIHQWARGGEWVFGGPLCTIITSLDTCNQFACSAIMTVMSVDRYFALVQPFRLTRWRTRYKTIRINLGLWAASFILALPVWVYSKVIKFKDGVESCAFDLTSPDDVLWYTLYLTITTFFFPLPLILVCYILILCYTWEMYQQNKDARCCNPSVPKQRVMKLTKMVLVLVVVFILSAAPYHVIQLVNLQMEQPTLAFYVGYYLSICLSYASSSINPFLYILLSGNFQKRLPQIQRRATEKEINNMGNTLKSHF

Mus musculus [4] = assay: In vivo efficacy of compound for food intake by the mice in 2 h after peroral administration at 30 mpk expressed as percent of vehicle; type: functional
Mus musculus [5] = assay: In vivo efficacy of compound for food intake by the mice in 6 hr after peroral administration at 30 mpk expressed as percent of vehicle; type: functional
Mus musculus [6] = assay: In vivo efficacy of compound for food intake by the mice in 24 hr after peroral administration at 30 mpk expressed as percent of vehicle; type: functional
[7] = target: Melanin-concentrating hormone receptor 1 (Mus musculus) (UniProt Q8JZL2); assay: Ex vivo inhibition of MCH-ADO binding to Melanin concentrating hormone receptor 1 in mice (n=3) 6 hr after 30 mg/kg peroral dose; type: organism-based; parameters: dose 30 mg/kg; conditions: at 30 mg/kg
Sequence of Melanin-concentrating hormone receptor 1 (Mus musculus) (Q8JZL2 whole entry): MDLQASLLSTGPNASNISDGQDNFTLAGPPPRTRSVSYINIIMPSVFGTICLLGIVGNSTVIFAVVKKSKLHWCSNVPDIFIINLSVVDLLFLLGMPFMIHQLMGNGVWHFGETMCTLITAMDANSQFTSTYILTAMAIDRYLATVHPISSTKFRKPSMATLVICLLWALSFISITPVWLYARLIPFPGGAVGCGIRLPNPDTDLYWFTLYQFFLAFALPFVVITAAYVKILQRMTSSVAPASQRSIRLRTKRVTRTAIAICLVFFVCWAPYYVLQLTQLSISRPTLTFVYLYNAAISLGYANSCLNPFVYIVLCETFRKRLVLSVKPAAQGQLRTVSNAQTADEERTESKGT

[8] = target: Melanin-concentrating hormone receptor 1 (Mus musculus, UniProt Q8JZL2); assay: Inhibition constant for mouse Melanin concentrating hormone receptor 1
Sequence of Melanin-concentrating hormone receptor 1 (Mus musculus, UniProt Q8JZL2) (Q8JZL2 whole entry): as above

[9] = Bioavailability of compound in rats (n= 3) after oral administration at 10 mpk; type: ADME, organism-based; conditions: rat, in vivo, 10 mg/kg
[10] = Steady state volume distribution of compound in rats (n= 3) after oral administration at 10 mpk; type: ADME, organism-based; conditions: rat, in vivo, 10 mg/kg
[11] = target: Melanin-concentrating hormone receptor 1 (Mus musculus) (UniProt Q8JZL2); assay: Ex vivo inhibition of MCH-ADO binding to Melanin concentrating hormone receptor 1 in mice (n=3) 24 hr r after 30 mg/kg peroral dose; type: organism-based; parameters: dose 30 mg/kg; conditions: at 30 mg/kg
[12] = Clearance of compound in rats (n= 3) after intravenous administration at 10 mpk; type: ADME, organism-based; conditions: rat, in vivo, 10 mg/kg
[13] = Half life of compound in rats (n= 3) after intravenous administration at 10 mpk; type: ADME, organism-based; conditions: rat, in vivo, 10 mg/kg
[14] = Area under concentration time curve (from 0-24 hr) for compound in rats (n= 3) after oral administration at 10 mpk; type: ADME; parameters: dose 10 mpk, time < 24 hr, route oral; conditions: rat, in vivo, 10 mg/kg
Mus musculus [15] = assay: Reduction in milk consumption by fasted mouse after oral administration
Rattus norvegicus [16] = assay: Oral efficacy for reduction in body weight of rats after 4 days of administration; Range is 15-20%; type: functional
Rattus norvegicus [17] = assay: Reduction of food intake by rats after 6 hr of administration was measured; type: functional
Rattus norvegicus [18] = assay: Suppression of Melanin concentrating hormone receptor-stimulated food intake in lean rats after 30 mg/kg dose; type: functional

Compound: N#Cc1cccc(C2=CCC(N(CCN3CCCC3)C(=O)Nc3ccc(F)c(Cl)c3)CC2)c1 (configuration not stated)
Kb [1]: 9 nM
pKi [2]: 8.52
pKi [3]: < 5.52

Compound: N#Cc1cccc(-c2ccc(N(CCN3CC[C@@H](O)C3)C(=O)Nc3ccc(F)c(C(F)(F)F)c3)cc2)c1
Kb [1]: 2 nM
pKi [2]: 8.05
pKi [3]: < 5.52
pKi [8]: 8.02

Compound: N#Cc1cccc([C@H]2CC[C@@H](N(CCN3CC[C@@H](O)C3)C(=O)Nc3ccc(F)c(C(F)(F)F)c3)CC2)c1
pKi [2]: 5.69
pKi [3]: < 5.52

Compound: C[C@]1(c2cccc(C#N)c2)CC[C@H](N(CCN2CC[C@@H](O)C2)C(=O)Nc2ccc(F)c(C(F)(F)F)c2)CC1
pKi [2]: 6.41
pKi [3]: < 5.52

Compound: N#Cc1cccc([C@]23CC[C@@H](N(CCN4CC[C@@H](O)C4)C(=O)Nc4ccc(F)c(Cl)c4)CC2C3)c1 (some centres not stated)
pKi [3]: < 5.52
pKi [8]: 7.97

Compound: CC(=O)N(C)C1CCN(c2ccc(NC(=O)N3CCC(c4ccc(Cl)cc4)CC3)cc2)C1 (configuration not stated)
Reduction (Mus musculus [15]): 64%

Compound: CN(C)c1nc(N[C@H]2CC[C@@H](NC(=O)c3ccc(F)c(F)c3)CC2)nc2ccccc12
Efficacy (Rattus norvegicus [16]): 20%

Compound: Cc1cc(N(C)CCN(C)C)nc2ccc(NC(=O)/C=C/c3ccc(OC(F)(F)F)cc3)cc12
Reduction (Rattus norvegicus [17]): >30%

Compound: N#Cc1cccc([C@]23CC[C@@H](N(CCN4CC[C@@H](O)C4)C(=O)Nc4ccc(F)c(Cl)c4)C[C@H]2C3)c1
Efficacy (Mus musculus [4]): 85%
Efficacy (Mus musculus [5]): 93.6%
Efficacy (Mus musculus [6]): 94.9%
inhibition [7]: 50%
inhibition [11]: 13%
pKi [3]: < 5.52
pKi [8]: 8.23

Compound: N#Cc1cccc([C@@]23CC[C@@H](N(CCN4CC[C@@H](O)C4)C(=O)Nc4ccc(F)c(Cl)c4)C[C@@H]2C3)c1
Efficacy (Mus musculus [4]): 80%
Efficacy (Mus musculus [5]): 99%
Efficacy (Mus musculus [6]): 98.6%
inhibition [7]: 62%
inhibition [11]: 8%
pKi [3]: < 5.52
pKi [8]: 8.11

Compound: CN(C)CC1CCc2cc(NC(=O)c3ccc(-c4ccc(F)cc4)cc3)ccc2C1 (configuration not stated)
Suppression (Rattus norvegicus [18]): >90%

Compound: C[C@]1(c2cccc(C#N)c2)CC[C@@H](N(CCN2CC[C@@H](O)C2)C(=O)Nc2ccc(F)c(C(F)(F)F)c2)CC1
pKi [2]: < 5.52
pKi [3]: < 5.52

Further lines, with some results ahead:

inhibition [7]: 81%
pKi [2]: 8.15
pKi [3]: < 5.52
Compound: N#Cc1ccccc1[C@]12CC[C@@H](N(CCN3CC[C@@H](O)C3)C(=O)Nc3ccc(F)c(C(F)(F)F)c3)[C@H]1C2
Efficacy (Mus musculus [4]): 65.7%
Efficacy (Mus musculus [5]): 68.2%
Efficacy (Mus musculus [6]): 80.8%

bioavailability [9]: 27%
Kb [1]: 1.9 nM
Vd(ss) [10]: 5.6 L/kg
inhibition [7]: 99%
inhibition [11]: 58%
clearance [12]: 21.8 mL/min/kg
half-life [13]: 4 h
pKi [2]: 8.57
pKi [3]: < 5.52
pKi [8]: 8.52
AUC [14]: 2140 ng·h/mL
Compound: CN1CCN(CCCCN(C(=O)Nc2ccc(F)c(C(F)(F)F)c2)[C@@H]2CC[C@]3(c4ccc(C#N)cc4)C[C@H]23)CC1
Efficacy (Mus musculus [4]): 77.3%
Efficacy (Mus musculus [5]): 76%
Efficacy (Mus musculus [6]): 78.1%

pKi [2]: 6.67
pKi [3]: < 5.52
Compound: N#Cc1cccc([C@H]2CC[C@H](N(CCN3CC[C@@H](O)C3)C(=O)Nc3ccc(F)c(C(F)(F)F)c3)CC2)c1

pKi [3]: < 5.52
Compound: N#Cc1cccc([C@@]23CC[C@@H](N(CCN4CC[C@@H](O)C4)C(=O)Nc4ccc(F)c(Cl)c4)CC2C3)c1 (some centres not stated)

inhibition [7]: 76%
pKi [2]: 7.74
pKi [3]: < 5.52
Compound: N#Cc1ccc([C@]23CC[C@@H](N(CCN4CCCC4)C(=O)Nc4cc(Cl)cc(Cl)c4)[C@H]2C3)cc1
Efficacy (Mus musculus [4]): 78.4%
Efficacy (Mus musculus [5]): 86.6%
Efficacy (Mus musculus [6]): 94.7%
